From patent US8841633B2, “Method and apparatus for detecting pharmaceuticals in a sample” (priority 2009, dated 2014)
Where two headings read alike, the source gives them in different places.

Columns and labels:
[1] = time-resolved fluorescence of isolated warfarin in PBS; type: physicochemical; conditions: excitation 334 nm
[2] = mean of three ± SEM
Procedure: The values are given as mean values of three measurements±standard error of the mean.
(§1) In connection with the retrieval of the blood sample, the patients respective International Normalized Ratio (INR) were measured, which is a well known type of measure indicative of the coagulation of the blood.

[3] = system: coagulation of the blood; experiment: International Normalized Ratio (INR) of patients treated with warfarin; type: in vivo, human
Procedure: as §1

[4] = blood sample of patient no. 1 treated with warfarin
[5] = blood sample of patient no. 2 treated with warfarin

excited state lifetime τ1 (unresolved) [1]: ≤ 100 ps
Amplitude A1 [2, 4]: 69.4 ± 0.2%
Amplitude A2 [2, 4]: 21.0 ± 0.2%
Amplitude A3 [2, 4]: 9.6 ± 0.1%
Fluorescence lifetime τ1 [2, 4]: 0.10 ± 0.00 ns
Fluorescence lifetime τ2 [2, 4]: 1.50 ± 0.04 ns
Fluorescence lifetime τ3 [2, 4]: 4.05 ± 0.01 ns
Amplitude A1 [2, 5]: 96.0 ± 0.3%
Amplitude A3 [2, 5]: 4.0 ± 0.3%
Fluorescence lifetime τ1 [2, 5]: 0.06 ± 0.00 ns
Fluorescence lifetime τ3 [2, 5]: 2.77 ± 0.02 ns
SMILES: CC(=O)CC(c1ccccc1)c1c(O)c2ccccc2oc1=O (stereo not shown) [Warfarin, warfarin]
INR value ([3]; patient no. 1 treated with warfarin): 3.0
INR value ([3]; patient no. 2 treated with warfarin): 1.9
